± gives the expanded uncertainty stated by the source.

This series can be described thus: activity coefficient (dimensionless); of the first substance listed, at infinite dilution; xn = mol fraction of the nth substance listed. The settings on record: Liquid, Chromatography, x1 = 0.

For the molecule `CC1CCCCC1` [methylcyclohexane] + CCCCCCn1cc[n+](C)c1.O=S(=O)([O-])C(F)(F)F, the activity coefficient is, setting by setting: (303.15 K) 14.1 ± 1.5; (313.15 K) 14 ± 2; (323.15 K) 13.9 ± 1.5; (333.15 K) 13.8 ± 1.4; (343.15 K) 13.7 ± 1.4; (353.15 K) 13.6 ± 1.4. Also, the activity coefficient (363.15 K) stood at 13.5 ± 1.4.

Take `CCCCCCCC` [octane] + CCCCCCn1cc[n+](C)c1.O=S(=O)([O-])C(F)(F)F: the activity coefficient reads like this: (303.15 K) 35 ± 3.7; (313.15 K) 34.5 ± 3.6; (323.15 K) 33.9 ± 3.6; (333.15 K) 33.4 ± 3.5; (343.15 K) 33.1 ± 3.5; (353.15 K) 32.7 ± 3.4. Further, the activity coefficient (363.15 K) was found to be 32 ± 3.4.

For `Cc1cccc(C)c1` [1,3-dimethylbenzene] + CCCCCCn1cc[n+](C)c1.O=S(=O)([O-])C(F)(F)F, the activity coefficient by setting is: (303.15 K) 2.82 ± 0.3; (313.15 K) 2.88 ± 0.3; (323.15 K) 2.97 ± 0.31; (333.15 K) 3.03 ± 0.32; (343.15 K) 3.12 ± 0.33; (353.15 K) 3.19 ± 0.34. Also, the activity coefficient (363.15 K) was 3.25 ± 0.34.

For `C1=CCCCC1` [cyclohexene] + CCCCCCn1cc[n+](C)c1.O=S(=O)([O-])C(F)(F)F, the activity coefficient is 6.12 ± 0.64 (303.15 K); 6.2 ± 0.65 (313.15 K); 6.26 ± 0.66 (323.15 K); 6.37 ± 0.67 (333.15 K); 6.43 ± 0.68 (343.15 K); 6.5 ± 0.68 (353.15 K). For the same molecule, for the setting “363.15 K”, the activity coefficient amounted to 6.55 ± 0.69.

In the case of `CCCCCC` [hexane] + CCCCCCn1cc[n+](C)c1.O=S(=O)([O-])C(F)(F)F, the activity coefficient by setting is: (303.15 K) 21.3 ± 2.2; (313.15 K) 21.2 ± 2.2; (323.15 K) 21.1 ± 2.2; (333.15 K) 20.9 ± 2.2; (343.15 K) 20.8 ± 2.2; (353.15 K) 20.7 ± 2.2. For the same molecule, for the setting “363.15 K”, the activity coefficient came to 20.5 ± 2.2.

On to `CCCCCCC` [heptane] + CCCCCCn1cc[n+](C)c1.O=S(=O)([O-])C(F)(F)F, for which the activity coefficient (303.15 K) was determined as 26.9 ± 2.8; the activity coefficient (313.15 K) is 26.7 ± 2.8; the activity coefficient (323.15 K) was determined as 26.6 ± 2.8; the activity coefficient (333.15 K) turned out to be 26.5 ± 2.8; the activity coefficient (343.15 K) was found to be 26.4 ± 2.8; the activity coefficient (353.15 K) was determined as 26.3 ± 2.8. Moreover, under “363.15 K”, the activity coefficient amounted to 26.1 ± 2.7.

For `c1ccccc1` [benzene] + CCCCCCn1cc[n+](C)c1.O=S(=O)([O-])C(F)(F)F, the activity coefficient amounted to 1.43 ± 0.15 (303.15 K); 1.48 ± 0.15 (313.15 K); 1.5 ± 0.16 (323.15 K); 1.55 ± 0.16 (333.15 K); 1.6 ± 0.2 (343.15 K); 1.64 ± 0.17 (353.15 K). The activity coefficient (363.15 K) turned out to be 1.65 ± 0.17.

`C1CCCCC1` [cyclohexane] + CCCCCCn1cc[n+](C)c1.O=S(=O)([O-])C(F)(F)F: the activity coefficient runs as follows: (303.15 K) 11 ± 1.1; (313.15 K) 10.9 ± 1.1; (323.15 K) 10.8 ± 1.1; (333.15 K) 10.7 ± 1.1; (343.15 K) 10.6 ± 1.1; (353.15 K) 10.5 ± 1.1. Further, the activity coefficient (363.15 K) was found to be 10.5 ± 1.1.

In the case of `CCCCC` [pentane] + CCCCCCn1cc[n+](C)c1.O=S(=O)([O-])C(F)(F)F, the activity coefficient is 14.8 ± 1.6 (303.15 K); 14.6 ± 1.5 (313.15 K); 14.5 ± 1.5 (323.15 K); 14.3 ± 1.5 (333.15 K); 14.1 ± 1.5 (343.15 K); 14 ± 1.5 (353.15 K). For the setting “363.15 K”, the activity coefficient was determined as 13.9 ± 1.5.

On to `CCCCCCCCCC` [decane] + CCCCCCn1cc[n+](C)c1.O=S(=O)([O-])C(F)(F)F, for which the activity coefficient (303.15 K) is 457 ± 48; the activity coefficient (313.15 K) is 357 ± 38; the activity coefficient (323.15 K) was 279 ± 29; the activity coefficient (333.15 K) was found to be 227 ± 24; the activity coefficient (343.15 K) amounted to 184 ± 19; the activity coefficient (353.15 K) came to 148 ± 16. Further, where the note is “363.15 K”, the activity coefficient is 112 ± 12.

For `CCCCCCCCC` [nonane] + CCCCCCn1cc[n+](C)c1.O=S(=O)([O-])C(F)(F)F, the activity coefficient by setting is: (303.15 K) 45.4 ± 4.8; (313.15 K) 44.6 ± 4.7; (323.15 K) 43.7 ± 4.6; (333.15 K) 42.3 ± 4.5; (343.15 K) 41.8 ± 4.4; (353.15 K) 40.3 ± 4.2. Moreover, the activity coefficient (363.15 K) stood at 39.9 ± 4.2.

Regarding `Cc1ccccc1` [toluene] + CCCCCCn1cc[n+](C)c1.O=S(=O)([O-])C(F)(F)F, the activity coefficient (303.15 K) is 1.98 ± 0.21; the activity coefficient (313.15 K) turned out to be 2.03 ± 0.21; the activity coefficient (323.15 K) was determined as 2.06 ± 0.22; the activity coefficient (333.15 K) was 2.14 ± 0.23; the activity coefficient (343.15 K) turned out to be 2.2 ± 0.23; the activity coefficient (353.15 K) was found to be 2.25 ± 0.24. In addition, under “363.15 K”, the activity coefficient turned out to be 2.27 ± 0.24.

For the molecule `CCc1ccccc1` [ethylbenzene] + CCCCCCn1cc[n+](C)c1.O=S(=O)([O-])C(F)(F)F, the activity coefficient runs as follows: (303.15 K) 2.88 ± 0.3; (313.15 K) 2.94 ± 0.31; (323.15 K) 2.99 ± 0.31; (333.15 K) 3.04 ± 0.32; (343.15 K) 3.12 ± 0.33; (353.15 K) 3.21 ± 0.34. Also, under “363.15 K”, the activity coefficient turned out to be 3.27 ± 0.34.

Take `CC(C)CC(C)(C)C` [2,2,4-trimethylpentane] + CCCCCCn1cc[n+](C)c1.O=S(=O)([O-])C(F)(F)F: the activity coefficient is, setting by setting: (303.15 K) 27.5 ± 2.9; (313.15 K) 26.9 ± 2.8; (323.15 K) 26.7 ± 2.8; (333.15 K) 26.3 ± 2.8; (343.15 K) 25.9 ± 2.7; (353.15 K) 25.7 ± 2.7. Also, the activity coefficient (363.15 K) came to 25.4 ± 2.7.

Regarding `C=Cc1ccccc1` [styrene] + CCCCCCn1cc[n+](C)c1.O=S(=O)([O-])C(F)(F)F, the activity coefficient runs as follows: (303.15 K) 1.7 ± 0.2; (313.15 K) 1.73 ± 0.18; (323.15 K) 1.76 ± 0.18; (333.15 K) 1.81 ± 0.19; (343.15 K) 1.84 ± 0.19; (353.15 K) 1.85 ± 0.19. Besides, for the setting “363.15 K”, the activity coefficient was found to be 1.88 ± 0.2.

As to `Cc1ccccc1C` [1,2-dimethylbenzene] + CCCCCCn1cc[n+](C)c1.O=S(=O)([O-])C(F)(F)F, the activity coefficient by setting is: (303.15 K) 2.39 ± 0.25; (313.15 K) 2.47 ± 0.26; (323.15 K) 2.56 ± 0.27; (333.15 K) 2.64 ± 0.28; (343.15 K) 2.67 ± 0.28; (353.15 K) 2.72 ± 0.28. Also, where the note is “363.15 K”, the activity coefficient stood at 2.8 ± 0.29.

For the molecule `Cc1ccc(C)cc1` [1,4-dimethylbenzene] + CCCCCCn1cc[n+](C)c1.O=S(=O)([O-])C(F)(F)F, the activity coefficient worked out at 2.76 ± 0.29 (303.15 K); 2.84 ± 0.3 (313.15 K); 2.91 ± 0.3 (323.15 K); 2.97 ± 0.31 (333.15 K); 3.08 ± 0.32 (343.15 K); 3.16 ± 0.33 (353.15 K). For the same molecule, under “363.15 K”, the activity coefficient was 3.22 ± 0.34.

For the origin of these results see the NIST ThermoML archive (doi:10.1021/je800043a).
